Laboratory results from US20110294686A1, “EGFR INHIBITOR THERAPY RESPONSIVENESS” (priority 2008, published 2011).
Like-named read-outs stand apart in the source and are kept apart here.

What was measured:
[1] = tested on: Metastatic NSCLC patients; conditions: for Response to gefitinib therapy: metastatic NSCLC
[2] = tested on: chemo-refractory advanced stage NSCLC; conditions: phase II clinical trials; cited from earlier work
[3] = EIF3H FISH negative patients (mean <2.75)
[4] = EIF3H FISH positive patients (mean ≧2.75)
[5] = MYC FISH negative patients (mean <2.79)
[6] = MYC FISH positive patients (mean ≧2.79)

In the case of `COc1cc2ncnc(Nc3ccc(F)c(Cl)c3)c2cc1OCCCN1CCOCC1` [gefitinib], the “response rate (RR)” value [1, 3] is reported as 0%, the “time to progression (TTP)” value [1, 3] is reported as 2.7 months and the “response rate (RR)” value [1, 4] is reported as 32%. The “survival (OS)” value [1, 4] was 17.8 months, the “time to progression (TTP)” value [1, 4] was 4.4 months and the “Response to gefitinib therapy” value ([1]; EIF3H amplified patients (ratio EIF3H/CEP8>2)) was 30%. The “Response to gefitinib therapy” value ([1]; EIF3H non amplified patients) was 14%, the “response rate (RR)” value [1, 5] was 0% and the “time to progression (TTP)” value [1, 5] was 2.6 months. For the same compound, the “response rate (RR)” value [1, 6] was 31%, the “time to progression (TTP)” value [1, 6] was 4.4 months and the “Response to gefitinib therapy” value ([1]; MYC amplified patients) was 25%. The “Response to gefitinib therapy” value ([1]; MYC non-amplified patients) was 14% and the “patients responding to treatment” value [2] was 11-20%.
